Values quoted from earlier work, collected in patent publication US6284774A, “4-Benzyl piperidine alkylsulfoxide heterocycles and their use as subtype-selective NMDA receptor antagonists” (priority 2000, dated 2001).

Assays:
[1] = variety of animal models highly predictive of human anxiety; cited from earlier work
[2] = tested on: smooth muscle of the airway; conditions: cited from earlier work

Row | SMILES | effectiveness in animal models of anxiety [1] | ability to relax the smooth muscle of the airway [2]
1 | C[C@]12N[C@H](Cc3ccccc31)c1ccccc12 [MK801] | effective in a variety of animal models of anxiety | –
2 | CNC1(c2ccccc2Cl)CCCCC1=O (centres unmarked) [ketamine] | – | relax the smooth muscle of the airway
